Experimental data published in article PMC4904262 (ACS Medicinal Chemistry Letters, 2016).

Assays:
JAK3 = JAK3 (Homo sapiens, UniProt P52333); settings: 1 µM, ATP at Km
PDK1 = PDK1 (Homo sapiens, UniProt O15530); settings: 1 µM, ATP at Km
TGFBR1 = TGFBR1 (Homo sapiens, UniProt P36897); settings: 1 µM, ATP at Km
IGF-1R = IGF-1R (Homo sapiens, UniProt P08069); settings: 1 µM, ATP at Km
SNK = SNK (Homo sapiens, UniProt Q9NYY3); settings: 1 µM, ATP at Km
ALK = ALK (Homo sapiens, UniProt Q9UM73); settings: 1 µM, ATP at Km
HIPK3 = HIPK3 (Homo sapiens, UniProt Q9H422); settings: 1 µM, ATP at Km
BRSK2 = BRSK2 (Homo sapiens, UniProt Q8IWQ3); settings: 1 µM, ATP at Km
AURKA = AURKA (Homo sapiens, UniProt O14965); settings: 1 µM, ATP at Km
GSK3ALPHA = GSK3ALPHA (Homo sapiens, UniProt P49840); settings: 1 µM, ATP at Km
PKG1ALPHA = PKG1ALPHA (Homo sapiens, UniProt Q13976); settings: 1 µM, ATP at Km
MAPK1 = MAPK1 (Homo sapiens, UniProt P27361); settings: 1 µM, ATP at Km
SAPK3 = SAPK3 (Homo sapiens, UniProt P53778); settings: 1 µM, ATP at Km
Chain of SAPK3 (P53778 whole entry): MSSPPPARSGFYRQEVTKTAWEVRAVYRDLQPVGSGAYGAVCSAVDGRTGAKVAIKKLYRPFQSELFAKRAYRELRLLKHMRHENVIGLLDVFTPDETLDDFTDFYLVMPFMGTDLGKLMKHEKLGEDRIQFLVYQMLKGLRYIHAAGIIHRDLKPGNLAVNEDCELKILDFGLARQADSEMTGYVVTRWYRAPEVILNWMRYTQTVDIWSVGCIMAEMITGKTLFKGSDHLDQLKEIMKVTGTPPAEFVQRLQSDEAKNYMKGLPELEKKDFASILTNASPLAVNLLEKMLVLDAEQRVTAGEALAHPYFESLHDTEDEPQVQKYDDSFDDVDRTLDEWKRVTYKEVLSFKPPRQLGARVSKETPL

PEK = PEK (Homo sapiens, UniProt Q9NZJ5); settings: 1 µM, ATP at Km
WNK2 = WNK2 (Homo sapiens, UniProt Q9Y3S1); settings: 1 µM, ATP at Km
EPHA1 = EPHA1 (Homo sapiens, UniProt P21709); settings: 1 µM, ATP at Km
TXK = TXK (Homo sapiens, UniProt P42681); settings: 1 µM, ATP at Km
IKKALPHA = IKKALPHA (Homo sapiens, UniProt O15111); settings: 1 µM, ATP at Km
EPHA4 = EPHA4 (Homo sapiens, UniProt P54764); settings: 1 µM, ATP at Km
DYRK2 = DYRK2 (Homo sapiens, UniProt Q92630); settings: 1 µM, ATP at Km
FMS = FMS (Homo sapiens, UniProt P07333); settings: 1 µM, ATP at Km
PLK1 = PLK1 (Homo sapiens, UniProt P53350); settings: 1 µM, ATP at Km
Chain of PLK1 (P53350 whole entry): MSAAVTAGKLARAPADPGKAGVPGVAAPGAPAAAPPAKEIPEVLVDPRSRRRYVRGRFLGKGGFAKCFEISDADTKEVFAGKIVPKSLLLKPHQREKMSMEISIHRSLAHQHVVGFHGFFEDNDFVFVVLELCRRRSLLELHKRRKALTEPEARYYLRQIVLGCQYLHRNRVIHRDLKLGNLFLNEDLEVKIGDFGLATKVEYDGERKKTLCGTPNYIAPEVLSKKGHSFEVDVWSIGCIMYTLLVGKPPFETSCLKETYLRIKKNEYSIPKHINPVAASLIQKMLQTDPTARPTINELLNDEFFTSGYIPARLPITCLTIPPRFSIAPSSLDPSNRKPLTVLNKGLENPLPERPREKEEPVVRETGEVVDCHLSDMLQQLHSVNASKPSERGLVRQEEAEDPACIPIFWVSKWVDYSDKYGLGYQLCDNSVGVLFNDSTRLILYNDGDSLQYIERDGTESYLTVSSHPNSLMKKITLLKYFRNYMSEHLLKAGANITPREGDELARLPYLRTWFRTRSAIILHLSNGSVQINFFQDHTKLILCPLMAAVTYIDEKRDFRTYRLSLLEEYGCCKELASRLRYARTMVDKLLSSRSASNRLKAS

PI3K BETA = PI3K BETA (Homo sapiens, UniProt P42338); settings: 1 µM, ATP at Km
MELK = MELK (Homo sapiens, UniProt Q14680); settings: 1 µM, ATP at Km
PRKCQ = PRKCQ (Homo sapiens, UniProt Q04759); settings: 1 µM, ATP at Km
EPHA8 = EPHA8 (Homo sapiens, UniProt P29322); settings: 1 µM, ATP at Km
PRAK = PRAK (Homo sapiens, UniProt Q8IW41); settings: 1 µM, ATP at Km
ALK4 = ALK4 (Homo sapiens, UniProt P36896); settings: 1 µM, ATP at Km
JNK1ALPHA1 = JNK1ALPHA1 (Homo sapiens, UniProt P45983); settings: 1 µM, ATP at Km
TSSK1 = TSSK1 (Homo sapiens, UniProt Q9BXA7); settings: 1 µM, ATP at Km
PI3K GAMMA = PI3K GAMMA (Homo sapiens, UniProt P48736); settings: 1 µM, ATP at Km
MKK6 = MKK6 (Homo sapiens, UniProt P52564); settings: 1 µM, ATP at Km
FER = FER (Homo sapiens, UniProt P16591); settings: 1 µM, ATP at Km
JNK2ALPHA2 = JNK2ALPHA2 (Homo sapiens, UniProt P45984); settings: 1 µM, ATP at Km
Chain of JNK2ALPHA2 (P45984 whole entry): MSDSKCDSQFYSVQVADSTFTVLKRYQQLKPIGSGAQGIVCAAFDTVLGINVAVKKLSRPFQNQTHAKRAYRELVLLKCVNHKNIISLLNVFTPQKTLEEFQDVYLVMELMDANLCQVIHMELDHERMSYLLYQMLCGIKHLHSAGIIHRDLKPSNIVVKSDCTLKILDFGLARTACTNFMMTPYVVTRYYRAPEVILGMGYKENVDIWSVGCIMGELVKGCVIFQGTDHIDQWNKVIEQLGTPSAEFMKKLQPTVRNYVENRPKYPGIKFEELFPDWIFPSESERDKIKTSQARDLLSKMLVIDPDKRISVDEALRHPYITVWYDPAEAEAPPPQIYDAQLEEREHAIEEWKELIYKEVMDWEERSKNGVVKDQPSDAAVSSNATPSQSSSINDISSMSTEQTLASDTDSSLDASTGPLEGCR

PASK = PASK (Homo sapiens, UniProt Q96RG2); settings: 1 µM, ATP at Km
CDK5/P35 = CDK5/P35 (Homo sapiens, UniProt Q00535); settings: 1 µM, ATP at Km
CRAF = CRAF (Homo sapiens, UniProt P04049); settings: 1 µM, ATP at Km
Chain of CRAF (P04049 whole entry): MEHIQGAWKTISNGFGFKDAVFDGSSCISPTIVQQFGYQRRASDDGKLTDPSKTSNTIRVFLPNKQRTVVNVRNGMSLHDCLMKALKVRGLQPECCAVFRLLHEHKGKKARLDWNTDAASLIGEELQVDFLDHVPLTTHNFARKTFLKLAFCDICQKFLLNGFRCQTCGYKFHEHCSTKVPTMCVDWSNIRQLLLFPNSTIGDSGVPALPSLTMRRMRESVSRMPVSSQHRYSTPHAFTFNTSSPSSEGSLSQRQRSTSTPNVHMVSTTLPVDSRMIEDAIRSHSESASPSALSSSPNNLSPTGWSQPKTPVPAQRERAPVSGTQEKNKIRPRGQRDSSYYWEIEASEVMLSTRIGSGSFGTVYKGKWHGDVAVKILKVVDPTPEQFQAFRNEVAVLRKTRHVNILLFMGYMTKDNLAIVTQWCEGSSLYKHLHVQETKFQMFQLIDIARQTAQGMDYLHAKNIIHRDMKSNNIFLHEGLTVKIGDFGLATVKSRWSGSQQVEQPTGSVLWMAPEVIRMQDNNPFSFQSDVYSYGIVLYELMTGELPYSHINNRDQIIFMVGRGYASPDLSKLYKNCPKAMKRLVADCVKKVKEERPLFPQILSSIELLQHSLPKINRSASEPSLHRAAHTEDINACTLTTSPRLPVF

CK1DELTA = CK1DELTA (Homo sapiens, UniProt P48730); settings: 1 µM, ATP at Km
Chain of CK1DELTA (P48730 whole entry): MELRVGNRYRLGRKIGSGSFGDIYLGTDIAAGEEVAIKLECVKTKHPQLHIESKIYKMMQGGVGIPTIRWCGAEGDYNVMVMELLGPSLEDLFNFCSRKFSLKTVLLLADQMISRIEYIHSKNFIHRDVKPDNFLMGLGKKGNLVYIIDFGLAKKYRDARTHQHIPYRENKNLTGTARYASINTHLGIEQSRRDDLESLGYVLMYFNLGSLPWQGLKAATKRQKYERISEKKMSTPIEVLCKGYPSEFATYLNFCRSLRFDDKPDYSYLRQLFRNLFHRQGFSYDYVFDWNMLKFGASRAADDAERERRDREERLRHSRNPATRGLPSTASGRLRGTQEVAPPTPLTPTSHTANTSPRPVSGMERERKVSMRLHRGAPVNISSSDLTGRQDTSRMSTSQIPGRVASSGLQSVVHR

ERBB4 = ERBB4 (Homo sapiens, UniProt Q15303); settings: 1 µM, ATP at Km
Chain of ERBB4 (Q15303 26-1308): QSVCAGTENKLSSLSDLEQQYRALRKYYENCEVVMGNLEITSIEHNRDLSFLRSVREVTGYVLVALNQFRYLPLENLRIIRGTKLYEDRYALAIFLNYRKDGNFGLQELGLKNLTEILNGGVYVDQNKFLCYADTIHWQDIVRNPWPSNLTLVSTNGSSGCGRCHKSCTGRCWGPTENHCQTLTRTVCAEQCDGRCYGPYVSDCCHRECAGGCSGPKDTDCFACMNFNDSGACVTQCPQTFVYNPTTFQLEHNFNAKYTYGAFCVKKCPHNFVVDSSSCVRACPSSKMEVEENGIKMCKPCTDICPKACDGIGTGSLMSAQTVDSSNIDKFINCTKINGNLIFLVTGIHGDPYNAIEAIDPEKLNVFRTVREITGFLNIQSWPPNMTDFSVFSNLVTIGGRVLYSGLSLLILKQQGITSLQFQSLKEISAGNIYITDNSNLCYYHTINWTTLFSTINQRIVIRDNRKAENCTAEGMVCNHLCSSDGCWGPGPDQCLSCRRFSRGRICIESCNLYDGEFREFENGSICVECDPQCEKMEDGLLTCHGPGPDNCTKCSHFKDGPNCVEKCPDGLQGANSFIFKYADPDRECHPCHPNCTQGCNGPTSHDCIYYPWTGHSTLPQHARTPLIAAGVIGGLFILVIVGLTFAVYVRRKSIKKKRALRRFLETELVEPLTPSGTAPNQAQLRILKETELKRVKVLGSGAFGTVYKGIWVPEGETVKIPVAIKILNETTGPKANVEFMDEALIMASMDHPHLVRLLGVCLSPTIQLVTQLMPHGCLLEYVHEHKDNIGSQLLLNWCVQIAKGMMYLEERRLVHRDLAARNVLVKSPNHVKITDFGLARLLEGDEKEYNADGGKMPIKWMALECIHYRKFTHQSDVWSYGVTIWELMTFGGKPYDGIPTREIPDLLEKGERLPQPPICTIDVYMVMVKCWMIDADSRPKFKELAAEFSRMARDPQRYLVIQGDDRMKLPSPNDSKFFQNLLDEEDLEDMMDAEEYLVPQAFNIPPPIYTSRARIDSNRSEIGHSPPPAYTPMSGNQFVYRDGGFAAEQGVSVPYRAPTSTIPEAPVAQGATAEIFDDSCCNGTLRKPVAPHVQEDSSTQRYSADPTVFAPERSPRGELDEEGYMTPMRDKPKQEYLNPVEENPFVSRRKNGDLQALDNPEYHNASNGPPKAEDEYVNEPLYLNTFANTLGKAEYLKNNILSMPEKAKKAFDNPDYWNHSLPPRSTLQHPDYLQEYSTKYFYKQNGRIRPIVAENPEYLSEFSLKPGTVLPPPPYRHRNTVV

FLT4 = FLT4 (Homo sapiens, UniProt P35916); assay: biochemical; settings: read-out: FLT4 inhibition
CLK3 = CLK3 (Homo sapiens, UniProt P49761); settings: 1 µM, ATP at Km
PKCIOTA = PKCIOTA (Homo sapiens, UniProt P41743); settings: 1 µM, ATP at Km
SAPK2B = SAPK2B (Homo sapiens, UniProt Q15759); settings: 1 µM, ATP at Km
PIM-1 = PIM-1 (Homo sapiens, UniProt P11309); settings: 1 µM, ATP at Km
MARK1 = MARK1 (Homo sapiens, UniProt Q9P0L2); settings: 1 µM, ATP at Km

Chain of SNK (Q9NYY3 whole entry): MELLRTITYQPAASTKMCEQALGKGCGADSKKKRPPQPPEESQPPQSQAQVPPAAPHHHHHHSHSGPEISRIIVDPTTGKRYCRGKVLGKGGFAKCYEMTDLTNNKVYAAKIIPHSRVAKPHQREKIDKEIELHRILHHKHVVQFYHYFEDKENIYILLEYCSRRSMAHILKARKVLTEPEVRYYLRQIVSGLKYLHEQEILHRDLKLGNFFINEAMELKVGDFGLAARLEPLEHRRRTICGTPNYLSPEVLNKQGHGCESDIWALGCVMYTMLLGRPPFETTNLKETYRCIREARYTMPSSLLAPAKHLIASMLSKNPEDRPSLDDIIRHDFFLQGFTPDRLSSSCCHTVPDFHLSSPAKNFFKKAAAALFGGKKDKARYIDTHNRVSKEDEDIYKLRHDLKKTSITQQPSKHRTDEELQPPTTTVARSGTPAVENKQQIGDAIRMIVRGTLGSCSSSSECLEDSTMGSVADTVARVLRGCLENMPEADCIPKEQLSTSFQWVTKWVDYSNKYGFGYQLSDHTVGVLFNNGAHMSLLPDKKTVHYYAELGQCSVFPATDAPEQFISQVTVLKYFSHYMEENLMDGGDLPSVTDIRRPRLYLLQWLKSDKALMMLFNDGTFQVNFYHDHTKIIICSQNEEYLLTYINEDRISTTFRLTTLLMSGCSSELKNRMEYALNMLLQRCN
Chain of PDK1 (O15530 whole entry): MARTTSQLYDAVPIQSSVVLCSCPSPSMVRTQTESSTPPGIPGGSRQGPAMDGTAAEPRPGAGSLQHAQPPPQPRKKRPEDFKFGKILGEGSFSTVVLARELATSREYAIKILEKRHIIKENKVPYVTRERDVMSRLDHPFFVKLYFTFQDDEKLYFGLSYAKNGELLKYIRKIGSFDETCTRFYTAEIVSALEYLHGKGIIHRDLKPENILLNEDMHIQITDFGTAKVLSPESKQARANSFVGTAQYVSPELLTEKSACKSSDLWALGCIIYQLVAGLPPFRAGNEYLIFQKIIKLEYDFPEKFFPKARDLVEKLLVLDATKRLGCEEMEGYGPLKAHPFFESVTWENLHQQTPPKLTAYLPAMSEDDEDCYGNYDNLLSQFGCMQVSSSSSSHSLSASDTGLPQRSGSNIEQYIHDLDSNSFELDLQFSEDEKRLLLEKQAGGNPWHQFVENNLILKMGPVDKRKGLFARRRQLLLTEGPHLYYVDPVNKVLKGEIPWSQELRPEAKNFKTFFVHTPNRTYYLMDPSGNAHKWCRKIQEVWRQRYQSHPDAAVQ

COC1CN(C(=O)c2ccc3c(N)ncc(-c4ccc(-c5cnn(C)c5)cc4)c3c2)C1 [Compound 59]
percentage effect (JAK3): 14% | percentage effect (PDK1): -10% | percentage effect (TGFBR1): -4% | percentage effect (IGF-1R): 9% | percentage effect (SNK): 3% | percentage effect (ALK): -30% | percentage effect (HIPK3): 4% | percentage effect (BRSK2): 5% | percentage effect (AURKA): -21% | percentage effect (GSK3ALPHA): -29% | percentage effect (PKG1ALPHA): 17% | percentage effect (MAPK1): -20% | percentage effect (SAPK3): -11% | percentage effect (PEK): 1% | percentage effect (WNK2): -3% | percentage effect (EPHA1): 4% | percentage effect (TXK): -7% | percentage effect (IKKALPHA): 28% | percentage effect (EPHA4): 1% | percentage effect (DYRK2): -9% | percentage effect (FMS): -14% | percentage effect (PLK1): -6% | percentage effect (PI3K BETA): -2% | percentage effect (MELK): -8% | percentage effect (PRKCQ): -12% | percentage effect (EPHA8): -12% | percentage effect (PRAK): -17% | percentage effect (ALK4): 8% | percentage effect (JNK1ALPHA1): -11% | percentage effect (TSSK1): -14% | percentage effect (PI3K GAMMA): -7% | percentage effect (MKK6): -14% | percentage effect (FER): 3% | percentage effect (JNK2ALPHA2): 2% | percentage effect (PASK): -4% | percentage effect (CDK5/P35): -2% | percentage effect (CRAF): 0% | percentage effect (CK1DELTA): -10% | percentage effect (ERBB4): -34% | inhibition at 1 µM (FLT4): 62% | percentage effect (CLK3): -19% | percentage effect (PKCIOTA): 2% | percentage effect (SAPK2B): 43% | percentage effect (PIM-1): -13% | percentage effect (MARK1): -14%

COC1CN(C(=O)c2ccc3c(N)ncc(-c4ccc(-c5cnn(C)c5)cc4)c3n2)C1 [Compound 51]
percentage effect (JAK3): 2% | percentage effect (PDK1): -8% | percentage effect (TGFBR1): -5% | percentage effect (IGF-1R): 19% | percentage effect (SNK): 8% | percentage effect (ALK): -20% | percentage effect (HIPK3): 6% | percentage effect (BRSK2): 1% | percentage effect (AURKA): -3% | percentage effect (GSK3ALPHA): -17% | percentage effect (PKG1ALPHA): 0% | percentage effect (MAPK1): -13% | percentage effect (SAPK3): -11% | percentage effect (PEK): -6% | percentage effect (WNK2): 18% | percentage effect (EPHA1): 7% | percentage effect (TXK): -13% | percentage effect (IKKALPHA): -17% | percentage effect (EPHA4): 2% | percentage effect (DYRK2): -6% | percentage effect (FMS): -37% | percentage effect (PLK1): 1% | percentage effect (PI3K BETA): -3% | percentage effect (MELK): -10% | percentage effect (PRKCQ): 5% | percentage effect (EPHA8): -9% | percentage effect (PRAK): 15% | percentage effect (ALK4): 9% | percentage effect (JNK1ALPHA1): -4% | percentage effect (TSSK1): 5% | percentage effect (PI3K GAMMA): -18% | percentage effect (MKK6): -4% | percentage effect (FER): -18% | percentage effect (JNK2ALPHA2): -6% | percentage effect (PASK): -8% | percentage effect (CDK5/P35): 8% | percentage effect (CRAF): -20% | percentage effect (CK1DELTA): 1% | percentage effect (ERBB4): -8% | inhibition at 1 µM (FLT4): 54% | percentage effect (CLK3): 2% | percentage effect (PKCIOTA): -16% | percentage effect (SAPK2B): 0% | percentage effect (PIM-1): -10% | percentage effect (MARK1): -5%
